What was measured:
OPM-2 = experiment: Assay 2: multiple myeloma cellular efficacy, PrestoBlue cell proliferation/survival; assay type: cell-based; conditions: Homo sapiens, 96 h, OPM-2 cells, 4 days
In short: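 Cells seeded at 10000/well and exposed to a compound dose range or vehicle for 4 days, then stained with PrestoBlue for 2 h at 37 °C. Fluorescence was background-subtracted and normalized to vehicle; EC50 came from a four-parameter variable-slope fit against log concentration.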

A375 cells = experiment: Assay 1: A375 cells treated with S1152, S1008 and compound, immunofluorescence (sc-365823) signal; assay type: cell-based; conditions: 1 μM S1152 + 0.5 μM S1008, one day
In short: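 A375 cells treated one day with 1 μM S1152, 0.5 μM S1008 and compound dose ranges in DMEM/10% FCS, then fixed, permeabilised and immunostained. Green signal normalised to nuclear counterstain (ethidium-type or DAPI), log ratio fitted by four-parameter regression for EC50.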

Structure (SMILES)	EC50 (OPM-2)	EC50 (A375 cells)
CC(=O)N1C[C@H](c2nc(Nc3ccnc(C(F)(F)F)c3)cc(-c3cccnc3)n2)CC[C@@H]1C [Compound 00123, 1-((2S,5R)-2-methyl-5-(4-(pyridin-3-yl)-6-((2-(trifluoromethyl)pyridin-4-yl)amino)pyrimidin-2-yl)piperidin 1-yl)ethan-1-one]	< 200 nM	< 200 nM
CC(=O)N1C[C@H](c2nc(Nc3cncc(C(F)(F)F)c3)cc(-c3cccnc3)n2)CC[C@@H]1C [Compound 00124, 1-((2S,5R)-2-methyl-5-(4-(pyridin-3-yl)-6-((5-(trifluoromethyl)pyridin-3-yl)amino)pyrimidin-2-yl)piperidin 1-yl)ethan-1-one]	200 to 1000 nM	< 200 nM
CC(=O)N1C[C@H](c2nc(Nc3ccnc(C)c3)cc(-c3cnccn3)n2)CC[C@@H]1C [Compound 000126]	< 200 nM	< 200 nM
CC(=O)N1C[C@H](c2nc(Nc3ccnc(C(F)F)c3)cc(-c3cnccn3)n2)CC[C@@H]1C [Compound 00130, 1-((2S,5R)-5-(4-((2-(difluoromethyl)pyridin-4-yl)amino)-6-(pyrazin-2-yl)pyrimidin-2-yl)-2-methylpiperidin-1-yl)ethan-1-one]	< 200 nM	< 200 nM
CC(=O)N1C[C@H](c2nc(Nc3ccnc(C)c3)cc(-c3cncc(C)n3)n2)CC[C@@H]1C [Compound 00131, 1-((2S,5R)-2-methyl-5-(4-(6-methylpyrazin-2-yl)-6-((2-methylpyridin-4-yl)amino)pyrimidin-2-yl)piperidin-1-yl)ethan-1-one]	< 200 nM	< 200 nM
COc1cncc(-c2cc(Nc3cncc(C)c3)nc([C@@H]3CC[C@H](C)N(C(C)=O)C3)n2)c1 [Compound 00132, 1-((2S,5R)-5-(4-(5-methoxypyridin-3-yl)-6-((5-methylpyridin-3-yl)amino)pyrimidin-2-yl)-2-methylpiperidin-1-yl)ethan-1-one]	< 200 nM	< 200 nM
CC(=O)N1C[C@H](c2nc(Nc3cc(C)nc(F)c3)cc(-c3cccnc3)n2)CC[C@@H]1C [Compound 00134, 1-((2S,5R)-5-(4-((2-fluoro-6-methylpyridin-4-yl)amino)-6-(pyridin-3-yl)pyrimidin-2-yl)-2-methylpiperidin-1-yl)ethan1-one]	< 200 nM	< 200 nM
CC(=O)Nc1cc(Nc2cc(-c3cccnc3)nc([C@@H]3CC[C@H](C)N(C(C)=O)C3)n2)ccn1 [Compound 00136, N-(4-((2-((3R,6S)-1-acetyl-6-methylpiperidin-3-yl)-6-(pyridin-3-yl)pyrimidin-4-yl)amino)pyridin-2-yl)acetamide]	1000 to 10000 nM	1000 to 10000 nM
CC(=O)Nc1cc(Nc2cc(-c3cnccn3)nc([C@@H]3CC[C@H](C)N(C(C)=O)C3)n2)ccn1 [Compound 00137, N-(4-((2-((3R,6S)-1-acetyl-6-methylpiperidin-3-yl)-6-(pyrazin-2-yl)pyrimidin-4-yl)amino)pyridin-2-yl)acetamide]	1000 to 10000 nM	200 to 1000 nM
CC(=O)N1C[C@H](c2nc(Nc3cc(C)nc(C)c3)cc(-c3cccnc3)n2)CC[C@@H]1C [Compound 00138, 1-((2S,5R)-5-(4-((2,6-dimethylpyridin-4-yl)amino)-6-(pyridin-3-yl)pyrimidin-2-yl)-2-methylpiperidin-1-yl)ethan-1-one]	200 to 1000 nM	< 200 nM
COc1cc(Nc2cc(-c3cccnc3)nc([C@@H]3CC[C@H](C)N(C(C)=O)C3)n2)ccn1 [Compound 00139, 1-((2S,5R)-5-(4-((2-methoxypyridin-4-yl)amino)-6-(pyridin-3-yl)pyrimidin-2-yl)-2-methylpiperidin-1-yl)ethan1-one]	< 200 nM	< 200 nM
COc1cc(Nc2cc(-c3cccnc3)nc([C@@H]3CC[C@H](C)N(C(C)=O)C3)n2)cc(C)n1 [Compound 00140, 1-((2S,5R)-5-(4-((2-methoxy-6-methylpyridin-4-yl)amino)-6-(pyridin-3-yl)pyrimidin-2-yl)-2-methylpiperidin-1-yl)ethan-1-one]	< 200 nM	< 200 nM
CC(=O)N1C[C@H](c2nc(Nc3cccc(-c4nnco4)c3)cc(-c3cccnc3)n2)CC[C@@H]1C [Compound 00141, 1-((2S,5R)-5-(4-((3-(1,3,4-oxadiazol-2-yl)phenyl)amino)-6-(pyridin-3-yl)pyrimidin-2-yl)-2-methylpiperidin-1-yl)ethan-1-one]	< 200 nM	< 200 nM
CC(=O)N1C[C@H](c2nc(Nc3cccc(-c4nnc(C)o4)c3)cc(-c3cccnc3)n2)CC[C@@H]1C [Compound 00142, 1-((2S,5R)-2-methyl-5-(4-((3-(5-methyl-1,3,4-oxadiazol-2-yl)phenyl)amino)-6-(pyridin-3-yl)pyrimidin-2-yl)piperidin-1-yl)ethan-1-one]	< 200 nM	< 200 nM
CC(=O)N1C[C@H](c2nc(Nc3ccnc(-c4cnn(C)c4)c3)cc(-c3cccnc3)n2)CC[C@@H]1C [Compound 00143, 1-((2S,5R)-2-methyl-5-(4-((2-(1-methyl-1H-pyrazol-4-yl)pyridin-4-yl)amino)-6-(pyridin-3-yl)pyrimidin-2-yl)piperidin-1-yl)ethan-1-one]	< 200 nM	< 200 nM
CC(=O)N1C[C@H](c2nc(Nc3cc(C)nc(C(F)F)c3)cc(-c3cccnc3)n2)CC[C@@H]1C [Compound 00144, 1-((2S,5R)-5-(4-((2-(difluoromethyl)-6-methylpyridin-4-yl)amino)-6-(pyridin-3-yl)pyrimidin-2-yl)-2-methylpiperidin-1-yl)ethan-1-one]	< 200 nM	< 200 nM
CC(=O)N1C[C@H](c2nc(Nc3cc(C)nc(C(F)F)c3)cc(-c3cnccn3)n2)CC[C@@H]1C [Compound 00145, 1-((2S,5R)-5-(4-((2-(difluoromethyl)-6-methylpyridin-4-yl)amino)-6-(pyrazin-2-yl)pyrimidin-2-yl)-2-methylpiperidin-1-yl)ethan-1-one]	< 200 nM	< 200 nM
CC(=O)N1C[C@H](c2nc(Nc3ccnc(C(C)(F)F)c3)cc(-c3cccnc3)n2)CC[C@@H]1C [Compound 00146, 1-((2S,5R)-5-(4-((2-(1,1-difluoroethyl)pyridin-4-yl)amino)-6-(pyridin-3-yl)pyrimidin-2-yl)-2-methylpiperidin-1-yl)ethan-1-one]	200 to 1000 nM	< 200 nM
CC(=O)N1C[C@H](c2nc(Nc3ccc4oc(C)nc4c3)cc(-c3cccnc3)n2)CC[C@@H]1C [Compound 00147, 1-((2S,5R)-2-methyl-5-(4-((2-methylbenzo[d]oxazol-5-yl)amino)-6-(pyridin-3-yl)pyrimidin-2-yl)piperidin-1-yl)ethan-1-one]	< 200 nM	< 200 nM
CC(=O)Nc1cccc(Nc2cc(-c3cccnc3)nc([C@@H]3CC[C@H](C)N(C(C)=O)C3)n2)n1 [Compound 00148, N-(6-((2-((3R,6S)-1-acetyl-6-methylpiperidin-3-yl)-6-(pyridin-3-yl)pyrimidin-4-yl)amino)pyridin-2-yl)acetamide]	< 200 nM	< 200 nM
COc1cc(Nc2cc(-c3cnccn3)nc([C@@H]3CC[C@H](C)N(C(C)=O)C3)n2)cc(C)n1 [Compound 00150, 1-((2S,5R)-5-(4-((2-methoxy-6-methylpyridin-4-yl)amino)-6-(pyrazin-2-yl)pyrimidin-2-yl)-2-methylpiperidin-1-yl)ethan-1-one]	< 200 nM	< 200 nM
CC(=O)N1C[C@H](c2nc(Nc3cc(C)ncn3)cc(-c3cnccn3)n2)CC[C@@H]1C [Compound 00151, 1-((2S,5R)-2-methyl-5-(4-((6-methylpyrimidin-4-yl)amino)-6-(pyrazin-2-yl)pyrimidin-2-yl)piperidin-1-yl)ethan-1-one]	200 to 1000 nM	200 to 1000 nM
CC(=O)N1C[C@H](c2nc(Nc3cc(C)nc(-c4cnn(C)c4)c3)cc(-c3cnccn3)n2)CC[C@@H]1C [Compound 00154, 1-((2S,5R)-2-methyl-5-(4-((2-methyl-6-(1-methyl-1H-pyrazol-4-yl)pyridin-4-yl)amino)-6-(pyrazin2-yl)pyrimidin-2-yl)piperidin-1-yl)ethan-1-one]	200 to 1000 nM	< 200 nM
CC(=O)N1C[C@H](c2nc(Nc3ccnc(OC(C)C)c3)cc(-c3cnccn3)n2)CC[C@@H]1C [Compound 00155, 1-((2S,5R)-5-(4-((2-isopropoxypyridin-4-yl)amino)-6-(pyrazin-2-yl)pyrimidin-2-yl)-2-methylpiperidin-1-yl)ethan-1-one]	200 to 1000 nM	200 to 1000 nM
CC(=O)N1C[C@H](c2nc(Nc3cc(F)ccn3)cc(-c3cnccn3)n2)CC[C@@H]1C [Compound 00156, 1-((2S,5R)-5-(4-((4-fluoropyridin-2-yl)amino)-6-(pyrazin2-yl)pyrimidin-2-yl)-2-methylpiperidin-1-yl)ethan-1-one]	200 to 1000 nM	200 to 1000 nM
CC(=O)N1C[C@H](c2nc(Nc3ccnc(-c4cnn(C5CC5)c4)c3)cc(-c3cccnc3)n2)CC[C@@H]1C [Compound 00157, 1-((2S,5R)-5-(4-((2-(1-cyclopropyl-1H-pyrazol-4-yl)pyridin-4-yl)amino)-6-(pyridin-3-yl)pyrimidin-2-yl)-2-methylpiperidin-1-yl)ethan-1-one]	< 200 nM	< 200 nM
CCn1cc(-c2cc(Nc3cc(-c4cccnc4)nc([C@@H]4CC[C@H](C)N(C(C)=O)C4)n3)ccn2)cn1 [Compound 00158, 1-((2S-5R)-5-(4-((2-(1-ethyl-1H-pyrazol-4-yl)pyridin-4-yl)amino)-6-(pyridin-3-yl)pyrimidin-2-yl)-2-methylpiperidin-1-yl)ethan-1-one]	< 200 nM	< 200 nM

— US12478624B2, “Heterocyclic derivatives, pharmaceutical compositions and their use in the treatment or amelioration of cancer” (Tolremo Therapeutics AG, priority 2019, dated 2025)
